Molecules are shown by their SMILES. Where only a bound is given, the exact number is not on record here.

Assay [1] deals with T1, CSBP/p38 (Homo sapiens, UniProt Q16539).
T1 construct: made in house; host or cells: yeast
The experiment in a line: CSBP/p38 Kinase Assay (32P transfer to T669 peptide). It is filed as biochemical. The note with it: "in this binding assay or a similar assay"; read-out: positive inhibitory activity, IC50. The method, then: This assay measures the CSBP/p38-catalyzed transfer of ^32p from [a-^32P]ATP to threonine residue in an epidermal growth factor receptor (EGFR)-derived peptide (T669) with the following sequence: […] (residues 661–681). (See Gallagher et al., “Regulation of Stress Induced Cytokine Production by Pyridinyl Imidazoles: Inhibition of CSBP Kinase”, BioOrganic & Medicinal Chemistry, 1997, 5, 49–64).
Reactions were carried in round bottom 96 well plate (from Corning) in a […]. Reactions contained (in final concentration): 25 mM Hepes, pH 7.5; 8 mM MgCl2; 0.17 mM ATP (the Km[ATP] of p38 (see Lee et al., Nature 300, n72 pg. 639–746 (December 1994)); 2.5 uCi of [g-32P]ATP; 0.2 mM sodium orthovanadate; 1 mM DTT; 0.1% BSA; 10% glycerol; 0.67 mM T669 peptide; and 2–4 nM of yeast-expressed, activated and purified p38. Reactions were initiated by the addition of [gamma-32P]Mg/ATP, and incubated for 25 min. at 37° C. Inhibitors (dissolved in DMSO) were incubated with the reaction mixture on ice for 30 minutes prior to adding the 32P-ATP. Final DMSO concentration was 0.16%. Reactions were terminated by adding 10 ul of 0.3 M phosphoric acid, and phosphorylated peptide was isolated from the reactions by capturing it on p81 phosphocellulose filters. Filters were washed with 75 mM phosphoric acids, and incorporated 32P was quantified using beta scintillation counter. […]

The test system of assay [2] is Interleukin-1 (IL-1). Description: Interleukin-1 (IL-1) production by LPS-stimulated human peripheral blood monocytes. It is filed as cell-based. The note with it: Monocyte, lipopolysaccharide 50 ng/ml, 24 h. The method, then: Human peripheral blood monocytes are isolated and purified from either fresh blood preparations from volunteer donors, or from blood bank buffy coats, according to the procedure of Colotta et al, J Immunol, 132, 936 (1984). These monocytes (1×10^6) are plated in 24-well plates at a concentration of 1–2 million/ml per well. The cells are allowed to adhere for 2 hours, after which time non-adherent cells are removed by gentle washing. Test compounds are then added to the cells for 1 h before the addition of lipopolysaccharide (50 ng/ml), and the cultures are incubated at 37° C. for an additional 24 h. At the end of this period, culture supernatants are removed and clarified of cells and all debris. Culture supernatants are then immediately assayed for IL-1 biological activity, either by the method of Simon et al., J. Immunol. Methods, 84, 85, (1985) (based on ability of IL-1 to stimulate a Interleukin 2 producing cell line (EL-4) to secrete IL-2, in concert with A23187 ionophore) or the method of Lee et al., J. ImmunoTherapy, 6 (1), 1–12 (1990) (ELISA assay).

T1 sequence (Q16539 whole entry): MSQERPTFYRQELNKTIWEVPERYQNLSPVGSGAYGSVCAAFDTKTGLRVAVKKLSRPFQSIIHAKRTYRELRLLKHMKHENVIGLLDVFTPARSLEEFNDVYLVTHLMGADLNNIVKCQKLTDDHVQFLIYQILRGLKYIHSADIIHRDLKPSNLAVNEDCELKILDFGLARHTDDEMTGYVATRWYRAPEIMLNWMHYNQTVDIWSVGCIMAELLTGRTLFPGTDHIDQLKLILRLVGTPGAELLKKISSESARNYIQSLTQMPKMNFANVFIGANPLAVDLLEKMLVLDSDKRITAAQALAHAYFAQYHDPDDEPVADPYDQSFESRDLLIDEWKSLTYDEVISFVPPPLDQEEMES

The term IC50 denotes the concentration needed to halve the response being measured. In the case of `Nc1cc(-n2nc(-c3ccccc3)nc2-c2ccc(F)cc2)ncn1` [Example 2, 1-(6-Aminopyrimidin-4-yl)-3-phenyl-5-(4-fluorophenyl)-1,2,4-triazole], the IC50 in assay [1] is less than 50 µM.
The compound `Fc1ccc(-c2nc(-c3ccccc3)nn2-c2ccncc2)cc1` [Example 1, 1-(Pyrid-4-yl)-3-phenyl-5-(4-fluorophenyl)-1,2,4-triazole] registered an IC50 in assay [2] of less than 7 µM.

These data come from patent publication US7223760B2, “Substituted triazole compounds” (SmithKline Beecham Corporation, priority 1998, dated 2007).
